GI50 and melting point data for one molecule are collected here from patent publication US6750223B2, “4-Anilino[2,3-b]quinoline derivatives, their preparation processes and pharmaceutical compositions comprising the same” (Kaohsiung Medical University, priority 2002, dated 2004).

SMILES strings stand for the structures. Where two headings read alike, the source gives them in different places. A value given as a limit tells only on which side of the number the result lay.

One series relates to NCI-H23. In words: NCI in vitro anticancer screen, NCI-H23. Format: cell-based, human. Conditions: Homo sapiens, NCI-H23; non-small-cell lung cancer cell line.
In series [1] the test system is colon cancer (COLO 205, HCC-2998, HCT-116, HCT-15, HT29, KM12, and SW-620). The experiment in a line: NCI in vitro anticancer screen, colon cancer subpanel. The series is classed as cell-based, human. As to conditions: Homo sapiens; subpanel value; read-out: GI50 Colon cancer.
Another series concerns NCI-H522. The experiment in a line: NCI in vitro anticancer screen, NCI-H522. Format: cell-based, human.
Series [2] has as its system CNS cancer (SF-268, SF-295, SF-539, SNB-19, SNB-75, and U251). The experiment in a line: NCI in vitro anticancer screen, CNS cancer subpanel. The series is classed as cell-based, human. As to conditions: Homo sapiens; subpanel value; read-out: GI50 CNS cancer.
The subject of the next series is NCI-H322M. In words: NCI in vitro anticancer screen, NCI-H322M. Format: cell-based, human. Conditions: Homo sapiens, NCI-H322M; non-small-cell lung cancer cell line.
Series [3] has as its system breast cancer (MCF7, MCF7/ADR-RES, MDA-MB-231/ATCC, HS 578T, MDA-MB-435, MDA-N, and T-47D). In words: NCI in vitro anticancer screen, breast cancer subpanel. Conditions: Homo sapiens; subpanel value; read-out: GI50 Breast cancer. The series is classed as cell-based, human.
The next series has as its system EKVX. The experiment in a line: NCI in vitro anticancer screen, EKVX. Format: cell-based, human. Conditions: Homo sapiens, EKVX; non-small-cell lung cancer cell line.
Series [4] concerns ovarian cancer (IGROV1, OVCAR-3, OVCAR-4, OVCAR-5, OVCAR-8, and SK-OV-3). The experiment in a line: NCI in vitro anticancer screen, ovarian cancer subpanel. The series is classed as cell-based, human. As to conditions: Homo sapiens; subpanel value; read-out: GI50 Ovarian cancer.
Series [5] relates to melanoma (LOX IMVI, MALME-3M, M14, SK-MEL-2, SK-MEL-28, SK-MEL-5, UACC-62, and UACC-257). In words: NCI in vitro anticancer screen, melanoma subpanel. The series is classed as cell-based, human. Conditions: Homo sapiens; subpanel value; read-out: GI50 Melanoma.
In the next series the test system is NCI-H226. In words: NCI in vitro anticancer screen, NCI-H226. The series is classed as cell-based, human. Conditions: Homo sapiens, NCI-H226; non-small-cell lung cancer cell line.
Series [6] deals with renal cancer (786-0, A498, ACHN, CAKI-1, RXF 393, SN12C, TK-10, and UO-31). The experiment in a line: NCI in vitro anticancer screen, renal cancer subpanel. The series is classed as cell-based, human. Conditions: Homo sapiens; subpanel value; read-out: GI50 Renal cancer.
In a further series the test system is HOP-62. In words: NCI in vitro anticancer screen, HOP-62. The series is classed as cell-based, human. As to conditions: Homo sapiens, HOP-62; non-small-cell lung cancer cell line.
A further series relates to HOP-92. The experiment in a line: NCI in vitro anticancer screen, HOP-92. Format: cell-based, human. Conditions: Homo sapiens, HOP-92; non-small-cell lung cancer cell line.
The next series has as its system NCI-H460. In words: NCI in vitro anticancer screen, NCI-H460. Conditions: Homo sapiens, NCI-H460; non-small-cell lung cancer cell line. The series is classed as cell-based, human.
For series [7], the system named is prostate cancer (PC-3 and DU-145). In words: NCI in vitro anticancer screen, prostate cancer subpanel. As to conditions: Homo sapiens, DU-145; subpanel value; read-out: GI50 Prostate cancer. The series is classed as cell-based, human.
For series [8], the system named is leukemia (CCRF-CEM, HL-60 (TB), K-562, MOLT-4, RPMI-8226, and SR). The experiment in a line: NCI in vitro anticancer screen, leukemia subpanel. Format: cell-based. Conditions: Homo sapiens; subpanel value; concentration causing 50% cell growth inhibition; read-out: GI50 Leukemia.
Series [9] deals with non-small cell lung cancer (A549/ATCC, EKVX, HOP-62, HOP-92, NCI-H226, NCI-H23, NCI-H322M, NCI-H460, and NCI-H522). In words: NCI in vitro anticancer screen, non-small-cell lung cancer subpanel. The series is classed as cell-based, human. As to conditions: Homo sapiens; subpanel value; read-out: GI50 Non-small-cell lung cancer.
The test system of series [10] is NCI's full panel of 60 human cancer cell lines. The experiment in a line: NCI in vitro anticancer screen, full panel mean. The series is classed as cell-based.
The subject of the next series is A549/ATCC. The experiment in a line: NCI in vitro anticancer screen, A549/ATCC. The series is classed as cell-based, human. Conditions: Homo sapiens, A549; non-small-cell lung cancer cell line.

In turn, `CO/N=C(\C)c1ccc(Nc2c3ccccc3nc3occc23)cc1` [Compound 8b, (E)-1-[4-(Furo[2,3-b]quinolin-4-ylamino)phenyl]ethanone O-Methyloxime] displayed a melting point of 167 to 168 °C. This molecule showed a GI50 in the series with NCI-H23 of 570 nM. Moreover, the GI50 in [1] is 320 nM. For the same molecule, the GI50 with NCI-H522 (Homo sapiens, NCI-H522) is less than 10 nM. Besides, in the series with NCI-H522 (non-small-cell lung cancer cell line), the GI50 was less than 10 nM. In addition, the GI50 in [2] came out at 570 nM. The concentration for 50% growth inhibition (GI50) in the series on NCI-H322M stood at 1220 nM. Further, the GI50 in [3] was 410 nM. Also, the concentration for 50% growth inhibition (GI50) with EKVX turned out to be 3780 nM. Moreover, in [4], the concentration for 50% growth inhibition (GI50) was 660 nM. Moreover, the GI50 in series [5] came to 1270 nM. Moreover, it took 3880 nM to inhibit growth in the series with NCI-H226 by half (GI50). Moreover, the concentration for 50% growth inhibition (GI50) in series [6] was determined as 1630 nM. This molecule also gave a GI50 with HOP-62 of 350 nM. In the series with HOP-92, this molecule had a GI50 of 12100 nM. This molecule also yielded a GI50 with NCI-H460 of 560 nM. Further, the GI50 in series [7] came out at 580 nM. Also, the GI50 in [8] came out at 360 nM. Moreover, in series [9], the GI50 amounted to 2580 nM. Further, the GI50 in [10] (Homo sapiens, mean values over all cell lines tested, read-out: GI50 MG_MID) amounted to 480 nM. The 50% growth inhibitory concentration (GI50) in series [10] (mean over all cell lines, read-out: mean GI50) amounted to 480 nM. Besides, halving of growth in the series with A549/ATCC (GI50) required 720 nM.

As a reminder, the GI50 is the concentration that inhibits growth by half. By melting point is commonly meant the temperature of the solid-liquid transition.
